Measurements as given in patent US5200338A, “Bacterial extracellular lignin peroxidase” (Idaho Research Foundation, Incorporation, priority 1988, dated 1993).

Tests used:
[1] = tested on: partially purified peroxidase; test: Oxidation of lignin substructure model compounds by partially purified peroxidase; type: biochemical, Streptomyces viridosporus T7A; conditions: 0.02% (wt/vol) model compound, hydrogen peroxide, pH 5.5, 37° C., 18 hours
Method: The model compounds were added to reaction mixtures at a final concentration of 0.02% (wt/vol). Reactions were carried out in a total volume of 3.0 ml, containing 0.1 mM hydrogen peroxide or a peroxide generating system consisting of 0.02 units/ml of glucose oxidase (Sigma) and 3 mM glucose 0.1M sodium tartrate buffer (pH 5.5) and 300 μl of enzyme preparation. Control reactions were performed with boiled enzyme preparation. Some reaction mixtures were flushed with oxygen and all were incubated at 37° C. for 18 hours on a shaker in slanting tubes. The reaction mixtures were then acidified to pH 2-3 with 12M HCl and extracted once with ether and once with ethyl acetate. […]
HPLC was performed on a Hewlett-Packard 1090A high pressure liquid chromatograph employing a HP-1040A diode array detector. During each run, chromatograms for 258, 280, and 310 nm were recorded and the ultraviolet (UV) absorbance spectrum (250-350 nm) of each peak was recorded at its front side, apex, and trailing side. […]
Only veratraldehyde, anisaldehyde and vanillin were detected by HPLC, GC, and GC/MS. Guaiacol, formed in trace amounds, was detected by HPLC, GC, and GC/MS. Small amounts of products (IV) and (V) were detected only by MS fragmentation. […]

Peroxidase P3 [2] = tested on: Peroxidase P3
Method: Peroxidase activity was routinely assayed with 2,4-dichlorophenol (2,4-DCP) (Sigma) as substrate. A final volume of 1.0 ml of reaction mixture contained 100 mM sodium succinate buffer (pH 5.5), 82 mM 4-aminoantipyrine(Sigma), 1.0 mM 2,4-dichlorophenol, 4.0 mM hydrogen peroxide and 100 μl of enzyme preparation. The reaction was initiated by the addition of hydrogen peroxide and the increase in A510 was monitored for one minute at 37° C. One unit of enzyme was expressed as the amount of enzyme required for an increase of 1.0 absorbance unit per min.

Peroxidase P3 [3] = conditions: inhibitor at final concentration lmM
Method: Enzyme activity was also assayed using L-3,4-dihydroxyphenylalanine (L-DOPA; Sigma) as substrate.

| Compound | Oxidation of the model compound by the peroxidase (bond cleaved) [1] | Inhibition of the enzyme (2,4-DCP and L-DOPA oxidizing activities), in words (Peroxidase P3 [2]; 1 mM concentration) | % inhibition of peroxidase P3 activity, substrate 2,4,-DCP (Peroxidase P3 [2]; inhibitor at final concentration lmM) [%] | Specific activity, substrate 2,4,-DCP, with inhibitor (Peroxidase P3 [2]; inhibitor at final concentration lmM, partially purified P3) [Units/mg protein] | % inhibition of peroxidase P3 activity, substrate L-DOPA (Peroxidase P3 [3]) [%] | Specific activity, substrate L-DOPA, with inhibitor (Peroxidase P3 [3]; partially purified P3) [Units/mg protein] |
| --- | --- | --- | --- | --- | --- | --- |
| COc1ccc(C(O)C(CO)Oc2ccccc2OC)cc1OC (stereo not shown) [I, 1-(3,4-Dimethoxyphenyl)-2-(2-methoxyphenoxy)propane-1,3-diol] | cleaved at the Cα -Cβ bond |  |  |  |  |  |
| COc1ccc(C(=O)Cc2ccccc2)cc1 [III, 1-(4-methoxyphenyl)-2-(phenyl)ethan-1-one] | cleaved between the Cαand Cβcarbons |  |  |  |  |  |
| [N-]=[N+]=[N-] [sodium azide] |  | inhibited | 83 | 0.18 | 41 | 0.18 |
